Values joined by “and” are separate entries in the source; they are usually repeats but may differ in a detail not shown here. Equal entries are not always repeated.
Conditions: Coaxial cylinder method

C=C [ethene]
Conditions | thermal conductivity
285.04 K, 6160 kPa, Fluid (supercritical or subcritical phases) | 0.06936 W/m/K
285.04 K, 6760 kPa, Fluid (supercritical or subcritical phases) | 0.07168 W/m/K
285.04 K, 7250 kPa, Fluid (supercritical or subcritical phases) | 0.07341 W/m/K
285.04 K, 8160 kPa, Fluid (supercritical or subcritical phases) | 0.07598 W/m/K
285.04 K, 9010 kPa, Fluid (supercritical or subcritical phases) | 0.07839 W/m/K
285.04 K, 9690 kPa, Fluid (supercritical or subcritical phases) | 0.0804 W/m/K
285.04 K, 9800 kPa, Fluid (supercritical or subcritical phases) | 0.08072 W/m/K
285.04 K, 9810 kPa, Fluid (supercritical or subcritical phases) | 0.08067 W/m/K
285.04 K, 9830 kPa, Fluid (supercritical or subcritical phases) | 0.0807 W/m/K
285.04 K, 9850 kPa, Fluid (supercritical or subcritical phases) | 0.08058 W/m/K
285.04 K, 9900 kPa, Fluid (supercritical or subcritical phases) | 0.08077 W/m/K
285.04 K, 9920 kPa, Fluid (supercritical or subcritical phases) | 0.08085 W/m/K
285.04 K, 9950 kPa, Fluid (supercritical or subcritical phases) | 0.08076 W/m/K and 0.08065 W/m/K
285.04 K, 10000 kPa, Fluid (supercritical or subcritical phases) | 0.08079 W/m/K
285.04 K, 10180 kPa, Fluid (supercritical or subcritical phases) | 0.08121 W/m/K
285.04 K, 10350 kPa, Fluid (supercritical or subcritical phases) | 0.08166 W/m/K
285.04 K, 10570 kPa, Fluid (supercritical or subcritical phases) | 0.08194 W/m/K
288.24 K, 4580 kPa, Fluid (supercritical or subcritical phases) | 0.03085 W/m/K
288.24 K, 5100 kPa, Fluid (supercritical or subcritical phases) | 0.03767 W/m/K
288.24 K, 5360 kPa, Fluid (supercritical or subcritical phases) | 0.04634 W/m/K
288.24 K, 5510 kPa, Fluid (supercritical or subcritical phases) | 0.05465 W/m/K
288.24 K, 5570 kPa, Fluid (supercritical or subcritical phases) | 0.06007 W/m/K
288.24 K, 5630 kPa, Fluid (supercritical or subcritical phases) | 0.06943 W/m/K
288.24 K, 5680 kPa, Fluid (supercritical or subcritical phases) | 0.07371 W/m/K
288.24 K, 5790 kPa, Fluid (supercritical or subcritical phases) | 0.0746 W/m/K
288.24 K, 5920 kPa, Fluid (supercritical or subcritical phases) | 0.06841 W/m/K
288.24 K, 6000 kPa, Fluid (supercritical or subcritical phases) | 0.06651 W/m/K
288.24 K, 6240 kPa, Fluid (supercritical or subcritical phases) | 0.06542 W/m/K
288.24 K, 6570 kPa, Fluid (supercritical or subcritical phases) | 0.06758 W/m/K
288.24 K, 7140 kPa, Fluid (supercritical or subcritical phases) | 0.06951 W/m/K
294.62 K, 5100 kPa, Fluid (supercritical or subcritical phases) | 0.03346 W/m/K
294.62 K, 5370 kPa, Fluid (supercritical or subcritical phases) | 0.03618 W/m/K
294.62 K, 6200 kPa, Fluid (supercritical or subcritical phases) | 0.05841 W/m/K
294.62 K, 6290 kPa, Fluid (supercritical or subcritical phases) | 0.06125 W/m/K
294.62 K, 6530 kPa, Fluid (supercritical or subcritical phases) | 0.06505 W/m/K
294.62 K, 6690 kPa, Fluid (supercritical or subcritical phases) | 0.066 W/m/K
294.62 K, 6770 kPa, Fluid (supercritical or subcritical phases) | 0.06592 W/m/K
294.62 K, 6870 kPa, Fluid (supercritical or subcritical phases) | 0.06592 W/m/K
294.62 K, 6950 kPa, Fluid (supercritical or subcritical phases) | 0.06591 W/m/K
294.62 K, 7030 kPa, Fluid (supercritical or subcritical phases) | 0.0659 W/m/K
294.62 K, 7130 kPa, Fluid (supercritical or subcritical phases) | 0.06589 W/m/K
294.62 K, 7360 kPa, Fluid (supercritical or subcritical phases) | 0.06665 W/m/K
294.62 K, 7490 kPa, Fluid (supercritical or subcritical phases) | 0.06627 W/m/K
294.62 K, 7670 kPa, Fluid (supercritical or subcritical phases) | 0.06623 W/m/K
294.62 K, 7690 kPa, Fluid (supercritical or subcritical phases) | 0.06625 W/m/K
294.62 K, 8210 kPa, Fluid (supercritical or subcritical phases) | 0.06804 W/m/K
294.62 K, 8570 kPa, Fluid (supercritical or subcritical phases) | 0.06916 W/m/K
294.62 K, 9220 kPa, Fluid (supercritical or subcritical phases) | 0.07111 W/m/K
294.62 K, 9740 kPa, Fluid (supercritical or subcritical phases) | 0.07276 W/m/K
294.62 K, 10280 kPa, Fluid (supercritical or subcritical phases) | 0.07482 W/m/K
294.62 K, 10840 kPa, Fluid (supercritical or subcritical phases) | 0.07574 W/m/K
301.6 K, 1010 kPa, Fluid (supercritical or subcritical phases) | 0.02196 W/m/K
301.6 K, 1900 kPa, Fluid (supercritical or subcritical phases) | 0.02294 W/m/K
301.6 K, 2940 kPa, Fluid (supercritical or subcritical phases) | 0.02469 W/m/K
301.6 K, 3920 kPa, Fluid (supercritical or subcritical phases) | 0.02736 W/m/K
301.6 K, 5010 kPa, Fluid (supercritical or subcritical phases) | 0.03136 W/m/K
301.6 K, 5560 kPa, Fluid (supercritical or subcritical phases) | 0.0359 W/m/K
301.6 K, 5610 kPa, Fluid (supercritical or subcritical phases) | 0.03586 W/m/K
301.6 K, 6120 kPa, Fluid (supercritical or subcritical phases) | 0.0417 W/m/K and 0.04209 W/m/K
301.6 K, 6550 kPa, Fluid (supercritical or subcritical phases) | 0.0488 W/m/K
301.6 K, 6780 kPa, Fluid (supercritical or subcritical phases) | 0.05244 W/m/K
301.6 K, 6930 kPa, Fluid (supercritical or subcritical phases) | 0.05667 W/m/K
301.6 K, 7100 kPa, Fluid (supercritical or subcritical phases) | 0.05988 W/m/K
301.6 K, 7230 kPa, Fluid (supercritical or subcritical phases) | 0.06174 W/m/K
301.6 K, 7400 kPa, Fluid (supercritical or subcritical phases) | 0.06342 W/m/K
301.6 K, 7430 kPa, Fluid (supercritical or subcritical phases) | 0.06371 W/m/K
301.6 K, 7440 kPa, Fluid (supercritical or subcritical phases) | 0.06376 W/m/K
301.6 K, 7460 kPa, Fluid (supercritical or subcritical phases) | 0.06392 W/m/K
301.6 K, 7480 kPa, Fluid (supercritical or subcritical phases) | 0.06395 W/m/K
301.6 K, 7570 kPa, Fluid (supercritical or subcritical phases) | 0.06425 W/m/K
301.6 K, 7680 kPa, Fluid (supercritical or subcritical phases) | 0.06462 W/m/K
301.6 K, 7720 kPa, Fluid (supercritical or subcritical phases) | 0.06482 W/m/K
301.6 K, 7760 kPa, Fluid (supercritical or subcritical phases) | 0.06461 W/m/K
301.6 K, 7800 kPa, Fluid (supercritical or subcritical phases) | 0.06479 W/m/K
301.6 K, 7820 kPa, Fluid (supercritical or subcritical phases) | 0.06483 W/m/K
301.6 K, 7980 kPa, Fluid (supercritical or subcritical phases) | 0.06482 W/m/K
301.6 K, 8360 kPa, Fluid (supercritical or subcritical phases) | 0.0649 W/m/K
301.6 K, 9100 kPa, Fluid (supercritical or subcritical phases) | 0.0668 W/m/K
301.6 K, 10390 kPa, Fluid (supercritical or subcritical phases) | 0.0716 W/m/K
301.6 K, 12800 kPa, Fluid (supercritical or subcritical phases) | 0.07701 W/m/K
301.6 K, 14950 kPa, Fluid (supercritical or subcritical phases) | 0.08151 W/m/K
301.6 K, 18120 kPa, Fluid (supercritical or subcritical phases) | 0.08743 W/m/K
301.6 K, 20700 kPa, Fluid (supercritical or subcritical phases) | 0.09068 W/m/K
301.6 K, 20800 kPa, Fluid (supercritical or subcritical phases) | 0.09075 W/m/K
301.6 K, 25600 kPa, Fluid (supercritical or subcritical phases) | 0.09706 W/m/K
301.6 K, 31800 kPa, Fluid (supercritical or subcritical phases) | 0.1039 W/m/K
301.6 K, 40300 kPa, Fluid (supercritical or subcritical phases) | 0.1138 W/m/K
301.6 K, 45200 kPa, Fluid (supercritical or subcritical phases) | 0.1185 W/m/K
301.6 K, 50400 kPa, Fluid (supercritical or subcritical phases) | 0.1236 W/m/K
301.6 K, 55500 kPa, Fluid (supercritical or subcritical phases) | 0.1283 W/m/K
301.6 K, 59300 kPa, Fluid (supercritical or subcritical phases) | 0.132 W/m/K
301.6 K, 61000 kPa, Fluid (supercritical or subcritical phases) | 0.1337 W/m/K and 0.1336 W/m/K
301.6 K, 62000 kPa, Fluid (supercritical or subcritical phases) | 0.1342 W/m/K
301.6 K, 65000 kPa, Fluid (supercritical or subcritical phases) | 0.1366 W/m/K
301.6 K, 65300 kPa, Fluid (supercritical or subcritical phases) | 0.1372 W/m/K
301.6 K, 65700 kPa, Fluid (supercritical or subcritical phases) | 0.1378 W/m/K
301.6 K, 66000 kPa, Fluid (supercritical or subcritical phases) | 0.1378 W/m/K
301.6 K, 70000 kPa, Fluid (supercritical or subcritical phases) | 0.1414 W/m/K
302.21 K, 101 kPa, Gas | 0.02112 W/m/K
303.1 K, 101 kPa, Gas | 0.0207 W/m/K
425 K, 101 kPa, Gas | 0.0381 W/m/K
425.46 K, 500 kPa, Fluid (supercritical or subcritical phases) | 0.03821 W/m/K
425.46 K, 1000 kPa, Fluid (supercritical or subcritical phases) | 0.03832 W/m/K
425.46 K, 2500 kPa, Fluid (supercritical or subcritical phases) | 0.03937 W/m/K
425.46 K, 5000 kPa, Fluid (supercritical or subcritical phases) | 0.04226 W/m/K
425.46 K, 7300 kPa, Fluid (supercritical or subcritical phases) | 0.04435 W/m/K
425.46 K, 10000 kPa, Fluid (supercritical or subcritical phases) | 0.04845 W/m/K
425.46 K, 12200 kPa, Fluid (supercritical or subcritical phases) | 0.0528 W/m/K
425.46 K, 14600 kPa, Fluid (supercritical or subcritical phases) | 0.05769 W/m/K and 0.05771 W/m/K
425.46 K, 14800 kPa, Fluid (supercritical or subcritical phases) | 0.05814 W/m/K
425.46 K, 20000 kPa, Fluid (supercritical or subcritical phases) | 0.06783 W/m/K
425.46 K, 24900 kPa, Fluid (supercritical or subcritical phases) | 0.07364 W/m/K
425.46 K, 30000 kPa, Fluid (supercritical or subcritical phases) | 0.07726 W/m/K
425.46 K, 40600 kPa, Fluid (supercritical or subcritical phases) | 0.08392 W/m/K
425.46 K, 50500 kPa, Fluid (supercritical or subcritical phases) | 0.0908 W/m/K
425.46 K, 60700 kPa, Fluid (supercritical or subcritical phases) | 0.09875 W/m/K
425.46 K, 70300 kPa, Fluid (supercritical or subcritical phases) | 0.1051 W/m/K
425.46 K, 71800 kPa, Fluid (supercritical or subcritical phases) | 0.1068 W/m/K
425.46 K, 73700 kPa, Fluid (supercritical or subcritical phases) | 0.109 W/m/K
425.46 K, 75000 kPa, Fluid (supercritical or subcritical phases) | 0.1098 W/m/K
425.46 K, 79000 kPa, Fluid (supercritical or subcritical phases) | 0.1119 W/m/K
425.46 K, 81900 kPa, Fluid (supercritical or subcritical phases) | 0.1144 W/m/K
425.46 K, 89500 kPa, Fluid (supercritical or subcritical phases) | 0.1184 W/m/K
425.46 K, 93500 kPa, Fluid (supercritical or subcritical phases) | 0.1214 W/m/K
425.46 K, 97000 kPa, Fluid (supercritical or subcritical phases) | 0.1232 W/m/K
425.46 K, 100000 kPa, Fluid (supercritical or subcritical phases) | 0.1251 W/m/K
425.62 K, 101 kPa, Gas | 0.03809 W/m/K

Source: the NIST ThermoML archive (doi:10.1016/j.fluid.2017.11.013)
